# Biological target: T1, 5-α-reductase type I (Homo sapiens, UniProt P18405)
# T1 sequence (P18405 1-259): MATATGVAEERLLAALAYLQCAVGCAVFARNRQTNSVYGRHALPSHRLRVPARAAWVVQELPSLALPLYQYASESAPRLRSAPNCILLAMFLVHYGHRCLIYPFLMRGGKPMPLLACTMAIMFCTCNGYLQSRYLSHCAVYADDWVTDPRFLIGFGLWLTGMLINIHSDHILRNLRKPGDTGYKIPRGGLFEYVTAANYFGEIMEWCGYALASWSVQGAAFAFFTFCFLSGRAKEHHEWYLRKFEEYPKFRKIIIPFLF
# Assay type: biochemical
row,IC50,SMILES
1,420 ± 20 nM,CC(C)(C)NC(=O)[C@H]1CC[C@H]2[C@@H]3CC[C@H]4NC(=O)C=C[C@]4(C)[C@H]3CC[C@]12C [finasteride]
2,6.5±0.33 and 6.8±0.1 μM,CCCCCCCCCCCCCCC[C@@H](O)[C@@H](N)CO (racemic) [sphinganine]

# From PMC5021059 (Clinical, Cosmetic and Investigational Dermatology, 2016)
